From patent publication US6080791A, “Method of treating a viral condition by inhibiting membrane fusion” (priority 1992, dated 2000)
Where two headings read alike, the source gives them in different places.

How the values were obtained:
[1] = tested on: hemagglutinin-mediated hemolysis of human red blood cells; experiment: Hemolysis (HEM) assay; assay type: cell-based, C22 influenza virus; human red blood cells
hemoglobin = experiment: Hb control (quenching of OD570 of hemoglobin); set-up: species or system human
[2] = tested on: influenza-mediated syncytia formation, CV-1 cells; settings: Table 6
in vitro = settings: dog, mdck
Experimental: The ELISA-based assay described below (EIA antiviral assay) was used to measure antiviral activity. Cell viability was measured in parallel to distinguish inhibition of viral replication from toxicity.
Infections of MDCK2 cells with virus, compounds, and DMSO were set up identically as for the EIA assay. Following the 15 hour incubation, test compounds were washed away with PBS. 50 μl of MDCK2 growth media and 25 μl 2 mg/ml 3-(4,5-dimethylthiazol-2-yl)-2,5-diphenyl tetrazolium bromide (Sigma) in PBS were added to each well. Plates were returned to 37° C., 5% CO2 for 4 hrs. Crystals were broken up by vigorous mixing following addition of 80 μl isopropanol/0.04 N HCl. After incubation for 30 mins at RT, OD570 was read on an ELISA reader. % Inhibition is the % reduction of OD570 in the wells infected with compound compared to otherwise identical samples with compound omitted.

C22 virus in MDCK2 cells [3] = experiment: microbe, parasite or virus in culture; settings: unidentified influenza virus; for inhibition at 1 µM / inhibition at 10 µM / inhibition at 100 µM: MDCK2, 15 h, read-out: infectivity % inhibition
HIV-1 fusion protein = HIV-1 fusion protein (Human immunodeficiency virus type 1 group M subtype B, UniProt P04578); experiment: Inhibition of fusion mediated by the HIV-1 fusion protein; assay type: cell-based
[4] = 1 mM
Experimental: Synthesis, purification, and characterization of selected compounds are summarized below. Stock solutions were prepared fresh daily. All solutions of the test compounds were prepared in dimethyl-sulfoxide (DMSO).

C22 virus in MDCK2 cells [5] = tested on: C22 virus in MDCK2 cells
[6] = molecular target: hemagglutinin (BHA), fusion peptide exposure (Influenza A virus (A/X-31(H3N2)), UniProt P03438); assay type: biochemical, C22 / X31 influenza virus (H3N2)
low pH BHA = experiment: SPA POST control (nonspecific quenching); set-up: species or system C22 / X31 influenza virus (H3N2)
Experimental: The compounds being screened by SPA are present during scintillation counting. Some of the chemicals, particularly those that are highly colored, quench the detection of radioactivity. A control ("POST") distinguishes whether apparent inhibition arises from inhibition of the conformational change or from nonspecific effects. The test compound is added to a sample of BHA that had previously been acidified and reneutralized. The mixture is then precipitated as usual. Since the BHA treated in this manner is known to be in the low pH conformation, a reduction in measurable cpm compared to controls with ligand omitted proves the compound interferes with the detection system.
^3 H-Leu BHA was diluted to 10,000 cpm (counts per minute) per 200 μl in MSSH buffer (10 mM HEPES, 10 mM MES, 10 mM succinate, 0.10 M NaCl, pH 7.0) containing 0.1% NP40. Protein was incubated with the specified concentration of trial compound for 25 minutes at RT. The same volume of solvent used to dissolve the compound was added to control samples and the final concentration of DMSO in all solutions was 0.67% v/v. A predetermined amount of 1N HAc was added to bring the reactions to the appropriate pH (usually pH 5.0). Following a 5 minute (unless specified otherwise) incubation at RT, reactions were reneutralized with 1N NaOH. For POST controls, compounds were added to the appropriate concentration after reneutralization. 200 μL aliquots of the protein solution were added to scintillation vials containing 100 μl protein A-SPA beads (Amersham), 5% fetal bovine serum (FBS), and antibody. Vials were incubated overnight at RT with constant shaking. Each reaction used 10 μl of fusion peptide antiserum diluted 1:10 with 50% glycerol. Cpm were detected in a Beckman LS3801 scintillation counter without addition of liquid scintillant.
Apparent inhibition due to nonspecific effects was quantitated from the POST controls with the equation:
observed cpm=true cpm*quench factor

[7] = molecular target: BHA (Influenza A virus (A/X-31(H3N2)), UniProt P03438); assay type: biochemical, C22 / X31 influenza virus (H3N2); settings: 1 mM
[8] = molecular target: C22 BHA (Influenza A virus (A/X-31(H3N2)), UniProt P03438); assay type: biochemical
[9] = unidentified influenza virus, Erythrocyte, Table 7, read-out: HEM, negative log of IC50 (converted)
[10] = unidentified influenza virus, Erythrocyte, log conc -3 (M), read-out: hemolysis % ↓ OD
[11] = MDCK2, read-out: IC50 infectivity
[12] = MDCK2, read-out: INF, negative log of IC50 (converted)
[13] = unidentified influenza virus, Erythrocyte, read-out: hemolysis % ↓ OD

Chain of C22 BHA (Influenza A virus (A/X-31(H3N2)), UniProt P03438) (P03438 whole entry, looked up): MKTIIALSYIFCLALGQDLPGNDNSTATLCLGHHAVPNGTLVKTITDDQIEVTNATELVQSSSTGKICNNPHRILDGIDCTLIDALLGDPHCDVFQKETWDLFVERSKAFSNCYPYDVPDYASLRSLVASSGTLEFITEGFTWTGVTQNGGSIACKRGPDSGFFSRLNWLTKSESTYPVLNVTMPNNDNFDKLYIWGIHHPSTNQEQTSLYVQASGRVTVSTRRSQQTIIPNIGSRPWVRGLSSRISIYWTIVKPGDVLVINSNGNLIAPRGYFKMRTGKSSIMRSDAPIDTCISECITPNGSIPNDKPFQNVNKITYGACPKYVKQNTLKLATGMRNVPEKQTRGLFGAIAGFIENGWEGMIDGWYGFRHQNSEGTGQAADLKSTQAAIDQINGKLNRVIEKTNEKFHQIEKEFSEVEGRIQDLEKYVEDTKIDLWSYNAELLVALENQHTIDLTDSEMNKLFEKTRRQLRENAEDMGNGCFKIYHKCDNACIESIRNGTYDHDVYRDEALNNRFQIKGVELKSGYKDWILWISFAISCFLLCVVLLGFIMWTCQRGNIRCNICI
Chain of hemagglutinin (BHA), fusion peptide exposure (Influenza A virus (A/X-31(H3N2)), UniProt P03438) (P03438 whole entry, looked up, the tested form may be a part): as the sequence (P03438 whole entry, looked up) above
Chain of BHA (Influenza A virus (A/X-31(H3N2)), UniProt P03438) (P03438 whole entry, looked up): as above

Compound	IC50 [1, 9] [µM]	inhibition at 1000 µM [1, 10] [%]	Hb control % ↓ OD (hemoglobin; log conc -3 (M)) [%]	syncytia, Table 6 [2]	cytotoxicity at 15 h, 1 µM (in vitro) [%]	cytotoxicity at 15 h, 10 µM (in vitro) [%]	cytotoxicity at 15 h, 100 µM (in vitro) [%]	inhibition at 1 µM (C22 virus in MDCK2 cells [3]) [%]	inhibition at 10 µM (C22 virus in MDCK2 cells [3]) [%]	infectivity in Table 6 (C22 virus in MDCK2 cells [5]; Table 6)	INF, words (Table 7) (C22 virus in MDCK2 cells [5]; Table 7)	also measured
Cc1c(O)ccc(O)c1C [Compound 99, 2,3-dimethylhydroquinone]	> 1000	28.7	27.8	toxic	-4.2 ± 9	-10.1 ± 10	99.4 ± 0.4	26.2 ± 8.6	35.9 ± 5.2			inhibition of hemolytic activity [1]: did not; IC50 ([1]; unidentified influenza virus, Erythrocyte, 0.25 h, Table 6, 10^-3 = 1 mM, low pH 15 minutes, read-out: IC50 hemolysis): > 1000 µM; inhibition at 100 µM (C22 virus in MDCK2 cells [3]): 114 ± 12%; IC50 (C22 virus in MDCK2 cells [3]; [11]): > 10 µM; IC50 (C22 virus in MDCK2 cells [3]; [12]): > 10 µM
COc1ccc(O)c2ccccc12 [Compound 107, 4-methoxy-1-naphthol]		104	92.5				96.9			toxic	toxic	hemolysis column of Table 6, words ([1]; Table 6): quench; HEM, words (Table 7) ([1]; Table 7): quench; IC50 (HIV-1 fusion protein): 50 µM; solubility at 1 mM [4]: only partially soluble at 1 mM
O=C1C=CC(=O)C2C3C=CC(C3)C12 (stereo not drawn) [Compound 83K, 4A,5,8,8A-tetrahydro-5,8-methano-1,4-naphthoguinone]	100 to 1000				3.4 ± 10.5	7.3 ± 8.9	46.4 ± 15.1			toxic	toxic	% inhibition, sample (Table 1) [6]: 49.1 ± 15.0%; inhibition at 10^-5 M ([6]; 10^-5 M): negligible inhibition; Inhibition of the POST controls (low pH BHA; 10 mM): 26.4%; Inhibition of the POST controls (low pH BHA; all other concentrations (below 10 mM)): ≤ 4%; % inhibition, POST control (low pH BHA; log conc -3 (M)): -5.3 ± 2.1%; % inhibition, POST control (low pH BHA; log conc -4 (M)): 3.0%; % inhibition, POST control (low pH BHA; log conc -5 (M)): 0.8 ± 12.7%; % inhibition, POST control (low pH BHA; log conc -6 (M)): -6.2%; reversibility of inhibition by dilution [7]: reversible by dilution; inhibition at low pH ([8]; 10 seconds at pH 5.0): 73%; inhibition at low pH ([8]; 10 minutes at pH 5.0): 43%; fraction of its maximal inhibition of fusion peptide exposure maintained ([8]; after 10 minutes at pH 5.0, C22 BHA): 60%; inhibition of hemolytic activity [1]: apparently inhibited hemolytic activity; cytotoxicity at 15 h, 1000 µM (in vitro): 92.9 ± 7.4%
Oc1ccc(O)c2c1C1CCC2C1 [Compound 111, 3',6'-dihydroxybenzonorbornane]	100 to 1000	36.7 ± 0.6	64.9 ± 0.5	morph	1 ± 5.8	-1.6 ± 0.8	41 ± 17	21.7 ± 4.9	57.4 ± 25.2			activity rank among compounds tested [6]: most active; % inhibition, POST control (low pH BHA; log conc -3 (M)): 13.3%; % inhibition, POST control (low pH BHA; log conc -4 (M)): 9.5%; inhibition at 100 µM ([1]; unidentified influenza virus, Erythrocyte, log conc -4 (M), read-out: hemolysis % ↓ OD): -6.9 ± 9.3%; Hb control % ↓ OD (hemoglobin; log conc -4 (M)): 40.4 ± 1.3%; inhibition at 100 µM (C22 virus in MDCK2 cells [3]): 102 ± 10.6%; IC50 (C22 virus in MDCK2 cells [3]; [11]): 10 µM; IC50 (C22 virus in MDCK2 cells [3]; [12]): 10 µM
Cl.Nc1ccc(O)c2ccccc12 [Compound 121, 4-amino-1-naphthol hydrochloride]							100					IC50 ([1]; unidentified influenza virus, Erythrocyte, 0.25 h, read-out: IC50 hemolysis): ≥ 1000 µM; IC50 ([1]; unidentified influenza virus, Erythrocyte, read-out: HEM, negative log of IC50 (converted)): ≥ 1000 µM; inhibition at 10 µM [1, 13]: -4.6 ± 0.1%; inhibition at 100 µM [1, 13]: 31.5 ± 7.8%; inhibition at 1000 µM [1, 13]: 116%; Hb control % ↓ OD (hemoglobin): 68.0%; INF, words (Table 7) (C22 virus in MDCK2 cells [5]): toxic; infectivity in Table 6 (C22 virus in MDCK2 cells [5]): toxic
Oc1ccc(O)c(-c2ccccc2)c1 [Compound 105, phenylhydroquinone]							100			toxic	toxic	solubility at 1 mM [4]: only partially soluble at 1 mM
O=C1C=CC(=O)c2cc3ccccc3cc21 [Compound 114, 1,4-anthraquinone]				toxic	-4.3 ± 3.3	53.7 ± 2.1	102	0.2 ± 0.2	92.3 ± 12.7	toxic	toxic	
